# Source: PubChem BioAssay (NCI)
#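 Protocol summary: plate cells (96-well), add compound at 5 concentrations, incubate 48 h, interpolate endpoints linearly. The concentration for 50% growth inhibition is given as GI50. The concentration for full growth arrest is given as TGI.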
# Legend:
# Test in all cases: inhibition of tumour cell growth, NCI panel, 48 h
# 786-0 renal = tested on: 786-0 renal
# A498 renal = tested on: A498 renal
# A549 NSCLC = tested on: A549 NSCLC
# ACHN renal = tested on: ACHN renal
# BT-549 breast = tested on: BT-549 breast
# CAKI-1 renal = tested on: CAKI-1 renal
# CCRF-CEM leukemia = tested on: CCRF-CEM leukemia
# COLO 205 colon = tested on: COLO 205 colon
# DU-145 prostate = tested on: DU-145 prostate
# EKVX NSCLC = tested on: EKVX NSCLC
# HCC-2998 colon = tested on: HCC-2998 colon
# HCT-116 colon = tested on: HCT-116 colon
# HCT-15 colon = tested on: HCT-15 colon
# HL-60(TB) leukemia = tested on: HL-60(TB) leukemia
# HOP-62 NSCLC = tested on: HOP-62 NSCLC
# HOP-92 NSCLC = tested on: HOP-92 NSCLC
# HS 578T breast = tested on: HS 578T breast
# HT29 colon = tested on: HT29 colon
# IGROV1 ovarian = tested on: IGROV1 ovarian
# K-562 leukemia = tested on: K-562 leukemia
# KM12 colon = tested on: KM12 colon
# LOX IMVI melanoma = tested on: LOX IMVI melanoma
# M14 melanoma = tested on: M14 melanoma
# MALME-3M melanoma = tested on: MALME-3M melanoma
# MCF7 breast = tested on: MCF7 breast
# MDA-MB-231 breast = tested on: MDA-MB-231 breast
# MDA-MB-435 = tested on: MDA-MB-435
# MOLT-4 leukemia = tested on: MOLT-4 leukemia
# NCI-H226 lung = tested on: NCI-H226 lung
# NCI-H23 lung = tested on: NCI-H23 lung
# NCI-H460 lung = tested on: NCI-H460 lung
# NCI-H522 lung = tested on: NCI-H522 lung
# NCI/ADR-RES ovarian = tested on: NCI/ADR-RES ovarian
# OVCAR-3 ovarian = tested on: OVCAR-3 ovarian
# OVCAR-4 ovarian = tested on: OVCAR-4 ovarian
# OVCAR-5 ovarian = tested on: OVCAR-5 ovarian
# OVCAR-8 ovarian = tested on: OVCAR-8 ovarian
# PC-3 prostate = tested on: PC-3 prostate
# RPMI-8226 leukemia = tested on: RPMI-8226 leukemia
# RXF 393 renal = tested on: RXF 393 renal
# SF-268 CNS = tested on: SF-268 CNS
# SF-295 CNS = tested on: SF-295 CNS
# SF-539 CNS = tested on: SF-539 CNS
# SK-MEL-2 melanoma = tested on: SK-MEL-2 melanoma
# SK-MEL-28 melanoma = tested on: SK-MEL-28 melanoma
# SK-MEL-5 melanoma = tested on: SK-MEL-5 melanoma
# SK-OV-3 ovarian = tested on: SK-OV-3 ovarian
# SN12C renal = tested on: SN12C renal
# SNB-19 CNS = tested on: SNB-19 CNS
# SNB-75 CNS = tested on: SNB-75 CNS
# SR leukemia = tested on: SR leukemia
# SW-620 colon = tested on: SW-620 colon
# T-47D breast = tested on: T-47D breast
# TK-10 renal = tested on: TK-10 renal
# U251 CNS = tested on: U251 CNS
# UACC-257 melanoma = tested on: UACC-257 melanoma
# UACC-62 melanoma = tested on: UACC-62 melanoma
# UO-31 renal = tested on: UO-31 renal
smiles,measurement,setting,value
CS(=O)(=O)c1ccc(-c2cnc(N)c(C(=O)Nc3ccccc3)n2)cc1,GI50,786-0 renal,3.71 µM
same,TGI,786-0 renal,> 100 µM
same,GI50,A498 renal,6.59 µM
same,TGI,A498 renal,> 100 µM
same,GI50,A549 NSCLC,> 24.2 µM
same,TGI,A549 NSCLC,> 100 µM
same,GI50,ACHN renal,3.92 µM
same,TGI,ACHN renal,29.6 µM
same,GI50,BT-549 breast,7.87 µM
same,TGI,BT-549 breast,40.8 µM
same,GI50,CAKI-1 renal,4.96 µM
same,TGI,CAKI-1 renal,> 55.8 µM
same,GI50,CCRF-CEM leukemia,4 µM
same,TGI,CCRF-CEM leukemia,> 100 µM
same,GI50,COLO 205 colon,> 43 µM
same,TGI,COLO 205 colon,> 100 µM
same,GI50,DU-145 prostate,8.35 µM
same,TGI,DU-145 prostate,> 100 µM
same,GI50,EKVX NSCLC,> 92.3 µM
same,TGI,EKVX NSCLC,> 100 µM
same,GI50,HCC-2998 colon,3.9 µM
same,TGI,HCC-2998 colon,> 100 µM
same,GI50,HCT-116 colon,11.4 µM
same,TGI,HCT-116 colon,> 100 µM
same,GI50,HCT-15 colon,5.92 µM
same,TGI,HCT-15 colon,> 100 µM
same,GI50,HL-60(TB) leukemia,5.62 µM
same,TGI,HL-60(TB) leukemia,> 100 µM
same,GI50,HOP-62 NSCLC,18.8 µM
same,TGI,HOP-62 NSCLC,> 100 µM
same,GI50,HOP-92 NSCLC,24.3 µM
same,TGI,HOP-92 NSCLC,> 100 µM
same,GI50,HS 578T breast,> 100 µM
same,TGI,HS 578T breast,> 100 µM
same,GI50,HT29 colon,7.5 µM
same,TGI,HT29 colon,> 100 µM
same,GI50,IGROV1 ovarian,5.17 µM
same,TGI,IGROV1 ovarian,> 100 µM
same,GI50,K-562 leukemia,5.34 µM
same,TGI,K-562 leukemia,> 100 µM
same,GI50,KM12 colon,> 100 µM
same,TGI,KM12 colon,> 100 µM
same,GI50,LOX IMVI melanoma,4.2 µM
same,TGI,LOX IMVI melanoma,> 100 µM
same,GI50,M14 melanoma,20.7 µM
same,TGI,M14 melanoma,> 100 µM
same,GI50,MALME-3M melanoma,> 100 µM
same,TGI,MALME-3M melanoma,> 100 µM
same,GI50,MCF7 breast,10.8 µM
same,TGI,MCF7 breast,> 100 µM
same,GI50,MDA-MB-231 breast,> 67.6 µM
same,TGI,MDA-MB-231 breast,> 100 µM
same,GI50,MDA-MB-435,> 100 µM
same,TGI,MDA-MB-435,> 100 µM
same,GI50,MOLT-4 leukemia,3.4 µM
same,TGI,MOLT-4 leukemia,> 100 µM
same,GI50,NCI-H226 lung,> 100 µM
same,TGI,NCI-H226 lung,> 100 µM
same,GI50,NCI-H23 lung,4.84 µM
same,TGI,NCI-H23 lung,> 100 µM
same,GI50,NCI-H460 lung,10.7 µM
same,TGI,NCI-H460 lung,> 100 µM
same,GI50,NCI-H522 lung,> 54.8 µM
same,TGI,NCI-H522 lung,> 100 µM
same,GI50,NCI/ADR-RES ovarian,22.6 µM
same,TGI,NCI/ADR-RES ovarian,> 100 µM
same,GI50,OVCAR-3 ovarian,15.7 µM
same,TGI,OVCAR-3 ovarian,> 100 µM
same,GI50,OVCAR-4 ovarian,9.86 µM
same,TGI,OVCAR-4 ovarian,> 100 µM
same,GI50,OVCAR-5 ovarian,> 100 µM
same,TGI,OVCAR-5 ovarian,> 100 µM
same,GI50,OVCAR-8 ovarian,> 45 µM
same,TGI,OVCAR-8 ovarian,> 100 µM
same,GI50,PC-3 prostate,> 100 µM
same,TGI,PC-3 prostate,> 100 µM
same,GI50,RPMI-8226 leukemia,> 100 µM
same,TGI,RPMI-8226 leukemia,> 100 µM
same,GI50,RXF 393 renal,2.69 µM
same,TGI,RXF 393 renal,> 50.1 µM
same,GI50,SF-268 CNS,25 µM
same,TGI,SF-268 CNS,> 100 µM
same,GI50,SF-295 CNS,24.2 µM
same,TGI,SF-295 CNS,> 100 µM
same,GI50,SF-539 CNS,6.81 µM
same,TGI,SF-539 CNS,> 100 µM
same,GI50,SK-MEL-2 melanoma,7.87 µM
same,TGI,SK-MEL-2 melanoma,> 96 µM
same,GI50,SK-MEL-28 melanoma,98.6 µM
same,TGI,SK-MEL-28 melanoma,> 100 µM
same,GI50,SK-MEL-5 melanoma,28.7 µM
same,TGI,SK-MEL-5 melanoma,> 100 µM
same,GI50,SK-OV-3 ovarian,6.85 µM
same,TGI,SK-OV-3 ovarian,> 100 µM
same,GI50,SN12C renal,6.81 µM
same,TGI,SN12C renal,> 100 µM
same,GI50,SNB-19 CNS,> 81.5 µM
same,TGI,SNB-19 CNS,> 100 µM
same,GI50,SNB-75 CNS,7.22 µM
same,TGI,SNB-75 CNS,> 100 µM
same,GI50,SR leukemia,2.39 µM
same,TGI,SR leukemia,> 100 µM
same,GI50,SW-620 colon,> 100 µM
same,TGI,SW-620 colon,> 100 µM
same,GI50,T-47D breast,> 100 µM
same,TGI,T-47D breast,> 100 µM
same,GI50,TK-10 renal,16.9 µM
same,TGI,TK-10 renal,> 100 µM
same,GI50,U251 CNS,31.7 µM
same,TGI,U251 CNS,> 100 µM
same,GI50,UACC-257 melanoma,> 100 µM
same,TGI,UACC-257 melanoma,> 100 µM
same,GI50,UACC-62 melanoma,> 51.9 µM
same,TGI,UACC-62 melanoma,> 100 µM
same,GI50,UO-31 renal,5.45 µM
same,TGI,UO-31 renal,> 42.8 µM
